Experimental data from patent US4487776A, “Azolyl-phenoxy-tetrahydrofuran-2-ylidene-methanes, a process for their preparation, and antimicrobial agents which contain these substances” (Bayer Aktiengesellschaft, priority 1982, dated 1984).
Converted amounts (≈) assume the structure as drawn.

Key:
Candida albicans = assay: Antimycotic in vitro activity, series dilution test (MIC); format: cell-based; settings: 5×10^4 germs/ml, meat extract/glucose broth, 20° C., 24 to 96 hours, read-out: MIC values in γ/ml of nutrient medium, Candida albicans
Method: (§1) Antimycotic in vitro activity Description of the experiment: The in vitro tests were carried out in a series dilution test with germ inocula of an average of 5×10^4 germs/ml of substrate. The nutrient medium was (b) for yeasts: meat extract/glucose broth. The incubation temperature was 20° C. and the duration of incubation was 24 to 96 hours, in the case of yeasts, and 96 hours in the case of dermatophytes and moulds.

Torulopsis glabrata = assay: as above; format: cell-based; settings: Nakaseomyces glabratus, 5×10^4 germs/ml, meat extract/glucose broth, 20° C., 24 to 96 hours, read-out: MIC values in γ/ml of nutrient medium, Torulopsis glabrata
Method: as §1

Trichophyton mentagr. = assay: as above; format: cell-based, Trichophyton mentagrophytes; settings: 5×10^4 germs/ml, Sabouraud's milieu d'épreuve, 20° C., 96 hours, read-out: MIC values in γ/ml of nutrient medium, Trichophyton mentagr.
Method: as §1, with “(a)” for “(b)”, “dermatophytes and moulds: Sabouraud's milieu d'/e/ preuve and” for “yeasts: meat extract/glucose broth.”

Microsporum canis = assay: as above; format: cell-based; settings: 5×10^4 germs/ml, Sabouraud's milieu d'épreuve, 20° C., 96 hours, read-out: MIC values in γ/ml of nutrient medium, Microsporum canis
Method: as §1, with “(a)” for “(b)”, “dermatophytes and moulds: Sabouraud's milieu d'/e/ preuve and” for “yeasts: meat extract/glucose broth.”

Aspergillus fumig. = assay: as above; format: cell-based, Aspergillus fumigatus; settings: 5×10^4 germs/ml, Sabouraud's milieu d'épreuve, 20° C., 96 hours, read-out: MIC values in γ/ml of nutrient medium, Aspergillus fumig.
Method: as §1, with “(a)” for “(b)”, “dermatophytes and moulds: Sabouraud's milieu d'/e/ preuve and” for “yeasts: meat extract/glucose broth.”

[1] = test system: dermatophytes and moulds, yeasts; assay: Antimycotic in vitro activity, overall comparison with known compounds; format: cell-based; settings: in vitro series dilution test
Method: Antimycotic in vitro activity
Description of the experiment:
The in vitro tests were carried out in a series dilution test with germ inocula of an average of 5×10^4 germs/ml of substrate. The nutrient medium was
(a) for dermatophytes and moulds:
Sabouraud's milieu d'/e/ preuve and
meat extract/glucose broth.
The incubation temperature was 20° C. and the duration of incubation was 24 to 96 hours, in the case of yeasts, and 96 hours in the case of dermatophytes and moulds.

SMILES	MIC (Candida albicans)	MIC (Torulopsis glabrata)	MIC (Trichophyton mentagr.)	MIC (Microsporum canis)	MIC (Aspergillus fumig.)	antimycotic action compared with compounds (A), (B), (C) and (D) [1]
CC(C)(C)C(O)C(=Cn1ccnc1)Oc1ccc(F)cc1 (centres unmarked) [(A), reference compound]	32 µg/mL (≈ 110 µM)	64 µg/mL (≈ 220 µM)	1 µg/mL (≈ 3.44 µM)	64 µg/mL (≈ 220 µM)	> 64 µg/mL	–
CC(C)(C)C(O)C(=Cn1ccnc1)Oc1ccc(-c2ccccc2)cc1 (centres unmarked) [(B), reference compound]	32 µg/mL (≈ 91.8 µM)	> 64 µg/mL	< 1 µg/mL	32 µg/mL (≈ 91.8 µM)	> 64 µg/mL	–
CC(C)(C)C(O)C(=Cn1ccnc1)Oc1ccc(Cl)cc1Cl (centres unmarked) [(C), reference compound]	16 µg/mL (≈ 46.9 µM)	16 µg/mL (≈ 46.9 µM)	< 1 µg/mL	32 µg/mL (≈ 93.8 µM)	> 64 µg/mL	–
CC(C)(C)C(O)C(=Cn1cncn1)Oc1ccc(Cl)cc1Cl (centres unmarked) [(D), reference compound]	32 µg/mL (≈ 93.5 µM)	32 µg/mL (≈ 93.5 µM)	< 1 µg/mL	64 µg/mL (≈ 187 µM)	64 µg/mL (≈ 187 µM)	–
CC1(C)CCOC1=C(Oc1ccc(Cl)cc1)n1ccnc1 [Example 1, (4-chlorophenoxy)-(imidazol-1-yl)-3,3-dimethyltetrahydrofuran-2-ylidene-methane]	8 µg/mL (≈ 26.2 µM)	2 µg/mL (≈ 6.56 µM)	< 1 µg/mL	< 1 µg/mL	< 1 µg/mL	better antimycotic action

The next compounds have a lower MIC (Candida albicans) than those just listed; values first:

MIC (Candida albicans)	MIC (Torulopsis glabrata)	MIC (Trichophyton mentagr.)	MIC (Microsporum canis)	MIC (Aspergillus fumig.)	SMILES	antimycotic action compared with compounds (A), (B), (C) and (D) [1]
< 1 µg/mL	2 µg/mL (≈ 6.94 µM)	< 1 µg/mL	< 1 µg/mL	2 µg/mL (≈ 6.94 µM)	CC1(C)CCOC1=C(Oc1ccc(F)cc1)n1ccnc1 [Example 2]	better antimycotic action
< 1 µg/mL	< 1 µg/mL	< 1 µg/mL	< 1 µg/mL	< 1 µg/mL	CC1(C)CCOC1=C(Oc1ccc(Cl)cc1Cl)n1ccnc1 [Example 3]	better antimycotic action
< 1 µg/mL	< 1 µg/mL	< 1 µg/mL	< 1 µg/mL	< 1 µg/mL	CC1(C)CCOC1=C(Oc1ccc(-c2ccccc2)cc1)n1ccnc1 [Example 7]	better antimycotic action
4 µg/mL (≈ 13.1 µM)	16 µg/mL (≈ 52.3 µM)	< 1 µg/mL	16 µg/mL (≈ 52.3 µM)	> 64 µg/mL	CC1(C)CCOC1=C(Oc1ccc(Cl)cc1)n1cncn1 [Example 11]	better antimycotic action
